{"source": "patent US8658190B2", "about": "(priority 2005, dated 2014)", "key": {"bacterial spores": {"tested_on": "bacterial spores", "settings": "background statement, cited from earlier work"}, "[1]": {"assay": "stability of glutaraldehyde concentration in solution", "type": "physicochemical", "settings": "composition buffered to about pH 7.3 to 7.9"}, "mycobacteria [2]": {"tested_on": "mycobacteria", "assay": "mycobactericidal / tuberculocidal activity (exposure time)", "type": "cell-based"}, "mycobacteria [3]": {"tested_on": "mycobacteria", "settings": "25 C, background statement; cited from earlier work"}}, "note": "Where two headings read alike, the source gives them in different places.", "data": [{"smiles": "O=Cc1ccccc1C=O", "note": "[Ortho-phthaladehyde, ortho-phthalaldehyde]", "values": [{"measurement": "time to kill bacterial spores", "setting": "bacterial spores; temperature not given", "result": "about 32 hrs"}]}, {"smiles": "O=CCCCC=O", "note": "[Glutaraldehyde]", "values": [{"measurement": "time glutaraldehyde is stable during use and re-use", "setting": "[1]", "result": "about 14 days"}, {"measurement": "tuberculocidal activity", "setting": "mycobacteria [2]; 2.0% glutaraldehyde alone, 20° C., exposure time of 10 min", "result": "nor is 2.0% glutaraldehyde tuberculocidal"}, {"measurement": "time to kill 6 log 10 of mycobacteria", "setting": "mycobacteria [3]", "result": "about 45 min"}, {"measurement": "time to kill bacterial spores", "setting": "bacterial spores; 25 C", "result": "about 10.0 hrs"}]}, {"smiles": "CCO", "note": "[Alcohol]", "values": [{"measurement": "tuberculocidal activity", "setting": "mycobacteria [2]; alcohol alone, 5% to 20% by volume", "result": "not tuberculocidal"}]}]}
